One assay has as its target T1, PARP-1 (Homo sapiens, UniProt P09874).
T1 construct: purchased R&D 4677-096-K
The following applies: within a concentration of between 2 M and 10 mM (so in the source); positive control; cited from earlier work.

Another assay deals with CD80 in RAW264.7 cells. The following applies: pre-incubated 2 h, then stimulus 12 h. On the procedure:
4. Flow antibodies FITC-labeled anti-CD80, CD86 were added for testing.
Raw264.7: 48-well plate, cells number of […]. Each well was added with 1 mL of culture system. Different concentrations of TJ-M201021 were added, and cells were pre-incubated for 2 h. CPG was then added. A final concentration was 40 ug/mL. Cells were incubated for 12 h at a temperature of 37° C. in an incubator filled with CO2. Flow antibodies FITC-labeled anti-CD80 and CD86 were added for testing.

Assay [1] relates to SH-SY5Y cells. Nature of the assay: Protection against cobalt chloride-induced hypoxic injury, MTT method and microscope. Type of assay: cell-based, human. The following applies: cobalt chloride 600 μM/L for 24 h, FIG. 4, FIG. 6. On the procedure:
Dopaminergic neuroblastoma tumor cells SH-SY5Y from human body were employed as experiment cells. Cobalt chloride having a concentration of 600 μM/L was used to treat SH-SY5Y cells for 24 h. […] It was known from the results that the aminothiazole derivatives have good protection on the cell against hypoxic injuries caused by cobalt chloride. Observed under the microscope, cells after being damaged (FIG. 5) had unclear edges, and the number of the cells was decreased. […] The growth of the cells was good.

Assay [2] concerns SH-SY5Y cells. The experiment in a line: Protection against neuronal apoptosis induced by hydrogen peroxide, MTT method. The following applies: SH-SY5Y cells damaged by H2O2 1000 μM/L for 12 h; concentration of 1 μM. Type of assay: cell-based, human. On the procedure:
Dopaminergic neuroblastoma tumor cells SH-SY5Y from human body were employed as experiment cells. H2O2 having a concentration of 1000 μM/L was used to treat SH-SY5Y cells for 12 h. Cell viability was approximately 50%, and a hydrogen peroxide damage model was determined MTT method was used to test the protection of TJ-M201018 (1), TJ-M201005 (2), TJ-M201041 (3), TJ-M201021 (4), and TJ-M201064 (5) on the cells damaged by hydrogen peroxide; results were shown in FIG. 3.

SMILES strings stand for the structures.

T1 sequence (P09874 whole entry): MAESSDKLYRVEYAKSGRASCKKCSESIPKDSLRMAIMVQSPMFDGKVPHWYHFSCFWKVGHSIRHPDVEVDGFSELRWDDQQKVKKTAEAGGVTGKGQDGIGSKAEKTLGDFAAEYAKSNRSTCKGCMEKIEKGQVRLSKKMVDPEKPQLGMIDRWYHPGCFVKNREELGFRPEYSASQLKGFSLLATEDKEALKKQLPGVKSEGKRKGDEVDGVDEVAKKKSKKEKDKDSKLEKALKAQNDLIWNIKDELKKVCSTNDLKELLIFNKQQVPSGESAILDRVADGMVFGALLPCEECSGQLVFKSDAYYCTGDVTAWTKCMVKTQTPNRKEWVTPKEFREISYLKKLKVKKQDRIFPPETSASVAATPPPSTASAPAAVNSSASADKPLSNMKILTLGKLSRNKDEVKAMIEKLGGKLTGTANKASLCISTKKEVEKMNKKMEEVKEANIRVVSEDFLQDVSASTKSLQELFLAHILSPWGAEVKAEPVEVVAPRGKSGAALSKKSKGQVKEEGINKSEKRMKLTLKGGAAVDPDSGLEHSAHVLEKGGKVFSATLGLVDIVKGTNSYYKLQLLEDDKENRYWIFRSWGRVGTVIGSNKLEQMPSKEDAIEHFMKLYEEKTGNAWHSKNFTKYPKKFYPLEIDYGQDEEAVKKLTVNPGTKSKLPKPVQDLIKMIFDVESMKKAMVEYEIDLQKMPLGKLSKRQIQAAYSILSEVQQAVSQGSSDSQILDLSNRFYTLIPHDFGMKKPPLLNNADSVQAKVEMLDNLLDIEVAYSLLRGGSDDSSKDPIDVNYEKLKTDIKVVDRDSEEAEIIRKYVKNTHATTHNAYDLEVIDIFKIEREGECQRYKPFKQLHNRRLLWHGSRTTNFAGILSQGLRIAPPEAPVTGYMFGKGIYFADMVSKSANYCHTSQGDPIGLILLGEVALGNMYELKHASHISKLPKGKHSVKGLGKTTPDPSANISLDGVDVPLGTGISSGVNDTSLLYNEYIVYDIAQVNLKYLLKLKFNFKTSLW

Regarding `NC(=O)c1cccc(N)c1` [3-AB], at PARP-1, the “inhibition effect on the PARP-1” value is reported as “had an inhibition effect on the PARP-1”.

As for `COc1ccc(N2CCN(CCC(=O)Nc3nc(-c4ccccc4)cs3)CC2)cc1` [TJ-M201021], in the assay on CD80 in RAW264.7 cells, the “increase of the costimulatory molecules CD80 caused by TLR stimuli (LPS, CpG)” value is “inhibited the increase of the costimulatory molecules CD80”. In the assay with SH-SY5Y cells [1], the “protection on the cell against hypoxic injuries caused by cobalt chloride” value was “a large number of cells existed and had clear edges”. In the assay on SH-SY5Y cells [2], the “cell viability (FIG. 3: increase rate of the cell viability)” value came to 30%.

These data come from patent US9771340B2, “2-aminothiazole derivatives and methods of preparing and using the same” (Huazhong University of Science & Technology, priority 2011, dated 2017).
